Measurements from PubChem BioAssay AID298 (DTP/NCI, 2004).
“And” between values parts separate entries of the source, which are not always exact repeats. Identical values can stand only once. Results filed as inconclusive are left out.

System: MX-1 breast xenograft, intrarenal, nude mice, tumor weight
Test: NCI In Vivo Anticancer Drug Screen. Data for tumor model Human Mammary Carcinoma MX-1 Xenograft (intrarenal inoculation) in NU/NU BALB/C (nude) mice
Details: endpoint: mean tumor weight change, higher = larger tumour
Outline: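 Compounds were given to mice carrying transplanted tumors, and tumor size or survival was measured. Each value is the treated-group measurement (T) divided by the vehicle-treated control-group measurement (C).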

[1] = dose: 150.0 mg/kg/injection, schedule: Q04DX003 (sc), vehicle: saline
[2] = dose: 300.0 mg/kg/injection, schedule: Q04DX003 (sc), vehicle: saline
[3] = dose: 150.0 mg/kg/injection, schedule: Q04DX003 (ip), vehicle: saline with Tween-80
[4] = dose: 300.0 mg/kg/injection, schedule: Q04DX003 (ip), vehicle: saline with Tween-80
[5] = dose: 30.0 mg/kg/injection, schedule: Q04DX003 (ip), vehicle: saline with Tween-80
[6] = dose: 60.0 mg/kg/injection, schedule: Q04DX003 (ip), vehicle: saline with Tween-80

In the case of `Oc1ccc(CCl)c2cccnc12`, the T/C (dose: 75.0 mg/kg/injection, schedule: Q04DX003 (sc), vehicle: saline) was 120 % of control, the T/C [1] was 99 % of control and the T/C [2] was 87 % of control.

In the case of `O=C(O)CC(NC(=O)CP(=O)(O)O)C(=O)O` (stereo not given), the T/C (dose: 50.0 mg/kg/injection, schedule: Q01DX010 (sc), vehicle: saline) was 36 % of control, the T/C (dose: 100.0 mg/kg/injection, schedule: Q01DX010 (sc), vehicle: saline) was 16 % of control and the T/C (dose: 200.0 mg/kg/injection, schedule: Q01DX010 (sc), vehicle: saline) was 5 % of control.

In the case of `Nc1ccc2ccc(N)cc2c1`, the T/C [3] was 75 % of control and the T/C [4] was 65 % of control.

With `N#Cc1c(N)[nH]c2ccc(Sc3ccccc3)cc12` the T/C [5] was 92 % of control, the T/C [6] was 88 % of control and the T/C (dose: 120.0 mg/kg/injection, schedule: Q04DX003 (ip), vehicle: saline with Tween-80) was 75 % of control.

With `C=COC(=O)C(Cc1ccccc1)NC(=O)OCc1ccccc1` (stereo not given) the T/C (dose: 300.0 mg/kg/injection, schedule: Q04DX003 (sc), vehicle: saline with Tween-80) was 63 % of control, the T/C (dose: 600.0 mg/kg/injection, schedule: Q04DX003 (sc), vehicle: saline with Tween-80) was 85 % of control and the T/C (dose: 1200.0 mg/kg/injection, schedule: Q04DX003 (sc), vehicle: saline with Tween-80) was 112 % of control.

In the case of `Nc1c(/C=C/c2cc3cc(C4=NCCN4)ccc3o2)[nH]c2cc(C3=NCCN3)ccc12`, the T/C (dose: 37.5 mg/kg/injection, schedule: Q04DX003 (ip), vehicle: Klucel (hydroxypropylcellulose) (HPC)) was 80 % of control, the T/C (dose: 75.0 mg/kg/injection, schedule: Q04DX003 (ip), vehicle: Klucel (hydroxypropylcellulose) (HPC)) was 103 % of control and the T/C (dose: 150.0 mg/kg/injection, schedule: Q04DX003 (ip), vehicle: Klucel (hydroxypropylcellulose) (HPC)) was 40 % of control.

For `COC1C(CO)OC(n2c3c(Cl)cccc3c3c4c(c5c6cccc(Cl)c6[nH]c5c32)C(=O)NC4=O)C(O)C1O` (stereo not given), the T/C (dose: 100.0 mg/kg/injection, schedule: Q04DX003 (ip), vehicle: distilled water + Tween-80) was 69 % of control, the T/C (dose: 200.0 mg/kg/injection, schedule: Q04DX003 (ip), vehicle: distilled water + Tween-80) was 43 % of control and the T/C (dose: 400.0 mg/kg/injection, schedule: Q04DX003 (ip), vehicle: distilled water + Tween-80) was 21 % of control. For the same compound, the T/C (dose: 800.0 mg/kg/injection, schedule: Q04DX003 (ip), vehicle: distilled water + Tween-80) was 30 % of control.

With `CN1CCN(c2ccc([N+](=O)[O-])c3no[n+]([O-])c23)CC1` the T/C (dose: 37.5 mg/kg/injection, schedule: Q04DX003 (sc), vehicle: saline with Tween-80) was 117 % of control, the T/C (dose: 75.0 mg/kg/injection, schedule: Q04DX003 (sc), vehicle: saline with Tween-80) was 83 % of control and the T/C (dose: 150.0 mg/kg/injection, schedule: Q04DX003 (sc), vehicle: saline with Tween-80) was 72 % of control.

For `Cc1cc(N/N=C/c2ccccn2)nc2ccccc12`, the T/C (dose: 300.0 mg/kg/injection, schedule: Q04DX003 (sc), vehicle: Klucel (hydroxypropylcellulose) (HPC)) was 74 % of control, the T/C (dose: 600.0 mg/kg/injection, schedule: Q04DX003 (sc), vehicle: Klucel (hydroxypropylcellulose) (HPC)) was 73 % of control and the T/C (dose: 1200.0 mg/kg/injection, schedule: Q04DX003 (sc), vehicle: Klucel (hydroxypropylcellulose) (HPC)) was 43 % of control. The T/C (dose: 2400.0 mg/kg/injection, schedule: Q04DX003 (sc), vehicle: Klucel (hydroxypropylcellulose) (HPC)) was 68 % of control.

For `CCCCN1C(=O)N(c2ccc(OCC)cc2)C2N(CCCC)C1C(C)(C)C2(C)C` (stereo not given), the T/C (dose: 15.0 mg/kg/injection, schedule: Q04DX003 (ip), vehicle: saline with Tween-80) was 90 % of control, the T/C [5] was 77 % of control and the T/C [6] was 89 % of control. The T/C (dose: 240.0 mg/kg/injection, schedule: Q04DX003 (ip), vehicle: saline with Tween-80) was 98 % of control.

`COc1cc2c(ccc3c4cc(OC)c(OC)cc4c[n+](C)c23)cc1O` was tested, and the T/C [1] was 83 % of control, the T/C [2] was 74 % of control and the T/C (dose: 600.0 mg/kg/injection, schedule: Q04DX003 (sc), vehicle: saline) was 79 % of control. For the same compound, the T/C (dose: 1200.0 mg/kg/injection, schedule: Q04DX003 (sc), vehicle: saline) was 68 % of control.

With `S=c1sc2ccccc2n1CN1CCOCC1` the T/C (dose: 75.0 mg/kg/injection, schedule: Q04DX003 (ip), vehicle: saline with Tween-80) was 77 % of control and 84 % of control, the T/C [3] was 110 % of control and 115 % of control and the T/C [4] was 79 % of control and 90 % of control. The T/C (dose: 600.0 mg/kg/injection, schedule: Q04DX003 (ip), vehicle: saline with Tween-80) was 67 % of control and 82 % of control.
